Experimental data published in PMC6966912, “Inverted Binding of Non-natural Substrates in Strictosidine Synthase Leads to a Switch of Stereochemical Outcome in Enzyme-Catalyzed Pictet–Spengler Reactions” (Journal of the American Chemical Society, 2020).

Key:
[1] = target: T1, OpSTR (strictosidine synthase from Ophiorrhiza pumila) (Ophiorrhiza pumila, UniProt Q94LW9); assay: X-ray crystal structure (cocrystallization with racemate); type: binding; parameters: gene str; N-terminal signal peptide removed for improved expression; conditions: active site, near Glu276
[2] = target: T1, OpSTR (strictosidine synthase from Ophiorrhiza pumila); assay: biochemical; parameters: gene str
[3] = substrate: CC(C)CC=O; assay: enzyme kinetics of Pictet-Spengler reaction; type: biochemical, Ophiorrhiza pumila; conditions: co-substrate tryptamine

CC[C@@H]1NCCc2c1[nH]c1ccccc21 [3c, (S)-3c]
X-ray crystal structure (cocrystallization with racemate) [1]: exclusively the (S)-enantiomers of 3a–c were identified in the active site of OpSTR

CCC[C@@H]1NCCc2c1[nH]c1ccccc21 [3b, (S)-3b]
X-ray crystal structure (cocrystallization with racemate) [1]: exclusively the (S)-enantiomers of 3a–c were identified in the active site of OpSTR

CC(C)C[C@@H]1NCCc2c1[nH]c1ccccc21 [3a, (S)-3a]
X-ray crystal structure (cocrystallization with racemate) [1]: exclusively the (S)-enantiomers of 3a–c were identified in the active site of OpSTR

C[C@@H]1NCCc2c1[nH]c1ccccc21 [(S)-3d]
IC50 [2]: 1600 ± 100 µM

CC1NCCc2c1[nH]c1ccccc21 (racemic) [rac-3d]
IC50 [2]: 3400 ± 300 µM

B1: OpSTR (strictosidine synthase from Ophiorrhiza pumila) (Ophiorrhiza pumila) (protein)
chain: SPEFFEFIEAPSYGPNAYAFDSDGELYASVEDGRIIKYDKPSNKFLTHAVASPIWNNALCENNTNQDLKPLCGRVYDFGFHYETQRLYIADCYFGLGFVGPDGGHAIQLATSGDGVEFKWLYALAIDQQAGFVYVTDVSTKYDDRGVQDIIRINDTTGRLIKYDPSTEEVTVLMKGLNIPGGTEVSKDGSFVLVGEFASHRILKYWLKGPKANTSEFLLKVRGPGNIKRTKDGDFWVASSDNNGITVTPRGIRFDEFGNILEVVAIPLPYKGEHIEQVQEHDGALFVGSLFHEFVGILHNYKSSVDHHQEKNSGGLNASFKEFSSF
notes: N-terminal signal peptide removed for improved expression
Km [3]: 5.36 ± 0.83 mM
